From PubChem BioAssay AID1963871 (Molecular Pharmacology Branch, DTP, NCI, 2024)

System: KRAS-mutant PDC multicell tumor spheroid viability
Test: Anticancer human tumor 521955-158-R2-J5-PDC patient-derived pancreatic carcinoma cell line growth inhibition [KRAS2]
Conditions: for IC50: curve of first compound; for viability, T/C: stronger effect = lower value
Method in brief: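 Combination screen of spheroid viability in tumor-cell co-cultures with endothelial (HUVEC) and mesenchymal stem cell stroma. Each agent was tested in half-log dilutions, topping at clinical Cmax or at 10 microM without a known Cmax.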

[1] = second compound 0.1 µM, first compound 0.0316 µM
[2] = second compound 0.1 µM, first compound 0.1 µM
[3] = second compound 0.1 µM, first compound 0.316 µM
[4] = second compound 0.1 µM, first compound 1 µM
[5] = second compound 0.1 µM, first compound 3.16 µM
[6] = second compound 0.1 µM, first compound 10 µM
[7] = second compound 0.316 µM, first compound 0.0316 µM
[8] = second compound 0.316 µM, first compound 0.1 µM
[9] = second compound 0.316 µM, first compound 0.316 µM
[10] = second compound 0.316 µM, first compound 1 µM
[11] = second compound 0.316 µM, first compound 3.16 µM
[12] = second compound 0.316 µM, first compound 10 µM
[13] = second compound 1 µM, first compound 0.0316 µM
[14] = second compound 1 µM, first compound 0.1 µM
[15] = second compound 1 µM, first compound 0.316 µM
[16] = second compound 1 µM, first compound 1 µM
[17] = second compound 1 µM, first compound 3.16 µM
[18] = second compound 1 µM, first compound 10 µM
[19] = second compound 3.16 µM, first compound 0.0316 µM
[20] = second compound 3.16 µM, first compound 0.1 µM
[21] = second compound 3.16 µM, first compound 0.316 µM
[22] = second compound 3.16 µM, first compound 1 µM
[23] = second compound 3.16 µM, first compound 3.16 µM
[24] = second compound 3.16 µM, first compound 10 µM
[25] = second compound 10 µM, first compound 0.0316 µM
[26] = second compound 10 µM, first compound 0.1 µM
[27] = second compound 10 µM, first compound 0.316 µM
[28] = second compound 10 µM, first compound 1 µM
[29] = second compound 10 µM, first compound 3.16 µM
[30] = second compound 10 µM, first compound 10 µM
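Also: viability read after seven days of drug exposure.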

Compound | IC50 (second compound 0.1 µM) [nM] | IC50 (second compound 0.316 µM) [nM] | IC50 (second compound 1 µM) [nM] | IC50 (second compound 3.16 µM) [nM] | IC50 (second compound 10 µM) [nM] | viability, T/C [1] [%] | viability, T/C [2] [%] | viability, T/C [3] [%] | viability, T/C [4] [%] | viability, T/C [5] [%] | viability, T/C [6] [%] | viability, T/C [7] [%] | viability, T/C [8] [%] | viability, T/C [9] [%] | viability, T/C [10] [%] | viability, T/C [11] [%] | viability, T/C [12] [%] | viability, T/C [13] [%] | viability, T/C [14] [%] | viability, T/C [15] [%] | other results
COC(=O)c1ccc2c(C(=Nc3ccc(N(C)C(=O)CN4CCN(C)CC4)cc3)c3ccccc3)c(O)[nH]c2c1 + CNCc1ccccc1-c1csc(C(C)Nc2nc(C)nc3cc(OC)c(OC)cc23)c1 | 2260 | 1800 | 1960 | < 31.6 | < 31.6 | 87.3 | 111 | 103 | 123 | 26.9 | 1.42 | 90 | 101 | 100 | 107 | 2.22 | 0.15 | 97.1 | 103 | 115 | viability, T/C [16]: 95.3%; viability, T/C [17]: 17.5%; viability, T/C [18]: 0.14%; viability, T/C [19]: 0.52%; viability, T/C [20]: 0.17%; viability, T/C [21]: 0.16%; viability, T/C [22]: 0.15%; viability, T/C [23]: 0.07%; viability, T/C [24]: 0.59%; viability, T/C [25]: 0.14%; viability, T/C [26]: 0.13%; viability, T/C [27]: 0.13%; viability, T/C [28]: 0.13%; viability, T/C [29]: 0.12%; viability, T/C [30]: 0.19%
COc1cc(Nc2ncc3c(n2)-c2ccc(Cl)cc2C(c2c(F)cccc2OC)=NC3)ccc1C(=O)O + CNCc1ccccc1-c1csc(C(C)Nc2nc(C)nc3cc(OC)c(OC)cc23)c1 | 75.6 | < 31.6 | < 31.6 | < 31.6 | < 31.6 | 57.5 | 48.2 | 43.6 | 48.2 | 49.2 | 43.6 | 48.4 | 45.4 | 51.4 | 46 | 47.6 | 39.8 | 39.7 | 31.4 | 34.5 | viability, T/C [16]: 28.4%; viability, T/C [17]: 35.2%; viability, T/C [18]: 40.9%; viability, T/C [19]: 0.73%; viability, T/C [20]: 0.13%; viability, T/C [21]: 1.25%; viability, T/C [22]: 1.11%; viability, T/C [23]: 0.12%; viability, T/C [24]: 1.59%; viability, T/C [25]: 0.28%; viability, T/C [26]: 0.29%; viability, T/C [27]: 0.26%; viability, T/C [28]: 0.51%; viability, T/C [29]: 1.28%; viability, T/C [30]: 0.37%
O=C(c1cc(Cc2n[nH]c(=O)c3ccccc23)ccc1F)N1CCN(C(=O)C2CC2)CC1 + CNCc1ccccc1-c1csc(C(C)Nc2nc(C)nc3cc(OC)c(OC)cc23)c1 | > 10000 | > 10000 | > 10000 | < 31.6 | < 31.6 | 93.9 | 106 | 91 | 88.3 | 72.7 | 55.7 | 86.7 | 100 | 94.5 | 88.8 | 72.1 | 54.3 | 92.3 | 98.1 | 99.6 | viability, T/C [16]: 94.5%; viability, T/C [17]: 70.7%; viability, T/C [18]: 51.9%; viability, T/C [19]: 0.34%; viability, T/C [20]: 0.17%; viability, T/C [21]: 0.17%; viability, T/C [22]: 0.65%; viability, T/C [23]: 0.18%; viability, T/C [24]: 0.2%; viability, T/C [25]: 0.16%; viability, T/C [26]: 0.14%; viability, T/C [27]: 0.16%; viability, T/C [28]: 0.16%; viability, T/C [29]: 0.18%; viability, T/C [30]: 0.23%
